This note sets out measurements from US10300091B2, “Sustained release angiogenesis modulating compositions and methods for induction and modulation of angiogenesis” (University of Florida Research Foundation, Inc., priority 2013, dated 2019).

This assay relates to HUVEC. Put plainly: Screening of TSP-1 in hPE-based angiogenesis assay. In kind it is cell-based, human. As to the method: Unless otherwise stated, 32 μl of placental extract was thawed and pipetted into each well of a 96 well plate. The extract was evenly coated onto the bottom of each well using an orbital shaker at 30 RPM for 1 minute. The coated plate was then incubated at 37° C. for 30 minutes. HUVEC were then plating by direct pipetting at 20000 cells/cm^2, 40000 cells/cm^2, or 80000 cells/cm^2. Multiple time points were investigated at each concentration including at days 1, 3, and 5. Thrombospondin-1 was tested as an angiogenesis inhibiting drug using final concentrations 0, 5, 10, 20, and 35 μg/μL diluted in endothelial cell media
Network formation was analyzed after staining at a concentration of 2 μg/mL Calcein AM (Invitrogen-Life Technologies, NY, USA) with Endothelial cell culture media. In a dark room, dyed cells were incubated at 37° C., 5% CO2 for 30 minutes, and then images were taken using a Zeiss Axiovert 200 inverted Fluorescence microscope (Zeiss, Thornwood, N.Y.). Images were analyzed to determine the tubule length, tubule width, branch points, and other meshwork characterizations using ImageJ 1.45s (NIH, Bethesda, Md.). Branch points were assigned manually as the positions at every node where branches meet or tubules sprout, and tubule length was assessed by determining the curve length from branch point to connected branch point. Tubule width measurements were carried out in three different zones per tubule, with two zones each 10 μm from the start and end and one zone in the middle of the curve length. The percent area of coverage was determined by processing the images using the imageJ function “binary>>convert to mask” followed by measurement of the “mean.” In TSP-1 experiments, final values were normalized to no dose samples, calculated as the percentage of “1” values relative to the total count of pixel values, and given as “% area coverage”.

In the case of “TSP-1: glycoprotein with potent inhibition activity on neovascularization; model anti-angiogenic drug”, the “angiogenic network formation with TSP-1” value (HUVEC on hPE treated plates, 1 d of culture) was “significantly reduced angiogenic network formation”. Besides, the “total tubule-length and branch points as a function of TSP-1 concentration” value (hPE-coated plates, 0-35 μg/μL TSP-1) is reported as “decrease linearly”. For the same substance, where the note is “seeded directly onto uncoated tissue culture plates, 1 d”, the “effect of TSP-1 on control HUVECs” value is “not affected”.
